# Where two headings read alike, the source gives them in different places.
# Assays:
# Type in all cases: cell-based
# [1] = test system: isogenic LN229 gliobastoma cells; test: Anti-cancer assay against isogenic LN229 cell line set, maximum 200 μM (Example 46); conditions: concentration up to 200 μM
# Procedure: Isogenic LN229 gliobastoma cells were maintained in Dulbecco's Modified Eagle Medium (DMEM) supplemented with 10% fetal bovine serum, 1% Penicillin/Streptomycin, and 0.1% Fungin. DAY 0: Cells were plated into sterile 96-well plates (Corning Costar 96-well) at a concentration of 500 cells/well using a Multichannel pipettor. Then, assay plates were incubated overnight in a 37° C. 5% CO2 incubator. DAY 1: Compounds were prepared as 50 mM stocks in dimethyl sulfoxide (DMSO) and stored protected from light at room temperature (RT) until use. Prior to compound addition, a two-fold serial dilution of compound stock solutions was performed in DMSO from 30 mM to 0.117 mM in a 96-well Master plate. Vehicle control wells contained DMSO. 97 μL of media was added to each well of a new 96-well plate (Daughter plate) and 3 μL of drug solution from Master plate was added to corresponding wells in the Daughter plate resulting in a 3× plate. Three replicate dilution curves of each compound were run on each assay plate. […]
# Assay plates were incubated for 120 hours at 37° C. in a humidified 5% CO2 incubator. DAY 5: Following incubation, cells were fixed with 4% paraformaldehyde and stained with Hoechst dye for nuclei visualization. […] Images were acquired on a BioTek Cytation 5 Cell Imaging Multimode Reader and quantified using Cell Profiler image analysis software. […]
# [2] = test system: LN229 gliobastoma cells MGMT−/MMR+; test: Anti-cancer assay, isogenic LN229 cells, nuclei count (Examples 43, 46); conditions: Homo sapiens, read-out: MGMT− MMR+ Activity
# From the text: (§1) Cytotoxicity of the compounds may be measured in short-term cell viability assays against four isogenic LN229 glioblastoma cell lines engineered to be proficient or deficient in MGMT and/or MMR activity by using short hairpin RNAs (shRNAs) targeting MSH2. This approach allows for determination of the relationship between MGMT status, MMR status, and compound activity. LN229 cells are maintained in Dulbecco's Modified Eagle Medium (DMEM) supplemented with 10% fetal bovine serum, 1% Penicillin/Streptomycin, and 0.1% Fungin. DAY 0: Cells are plated into sterile 96-well plates (Corning Costar 96-well) at a concentration of 500 cells/well using a Multichannel pipettor. Then, assay plates are incubated overnight in a 37° C. 5% CO2 incubator. DAY 1: Compounds are prepared as 50 mM stocks in dimethyl sulfoxide (DMSO) and stored protected from light at room temperature (RT) until use. Prior to compound addition, a two-fold serial dilution of compound stock solutions is performed in DMSO from 30 mM to 0.117 mM in a 96-well Master plate. Vehicle control wells contain DMSO. 97 μL of media is added to each well of a new 96-well plate (Daughter plate) and 3 μL of drug solution from Master plate is added to corresponding wells in the Daughter plate resulting in a 3× plate. Three replicate dilution curves of each compound are run on each assay plate. The final concentration of compounds ranges from 300 μM to 1.171 μM (9-point, 2-fold dilution dose response curve), and the final DMSO concentration is 1%.
# (§2) Assay plates are incubated for 120 hours at 37° C. in a humidified 5% CO2 incubator. DAY 5: Following incubation, cells are fixed with 4% paraformaldehyde and stained with Hoechst dye for nuclei visualization. Fixation, staining and washing is performed by using a Thermo Scientific Multidrop Combi. Images are acquired on a BioTek Cytation 5 Cell Imaging Multimode Reader and quantified using Cell Profiler image analysis software. Raw cell count data for test compounds are normalized to percent viability relative to the DMSO vehicle control.
# (§3) Isogenic LN229 gliobastoma cells were maintained in Dulbecco's Modified Eagle Medium (DMEM) supplemented with 10% fetal bovine serum, 1% Penicillin/Streptomycin, and 0.1% Fungin. DAY 0: Cells were plated into sterile 96-well plates (Corning Costar 96-well) at a concentration of 500 cells/well using a Multichannel pipettor. Then, assay plates were incubated overnight in a 37° C. 5% CO2 incubator. DAY 1: Compounds were prepared as 50 mM stocks in dimethyl sulfoxide (DMSO) and stored protected from light at room temperature (RT) until use. Prior to compound addition, a two-fold serial dilution of compound stock solutions was performed in DMSO from 30 mM to 0.117 mM in a 96-well Master plate. Vehicle control wells contained DMSO. 97 μL of media was added to each well of a new 96-well plate (Daughter plate) and 3 μL of drug solution from Master plate was added to corresponding wells in the Daughter plate resulting in a 3× plate. Three replicate dilution curves of each compound were run on each assay plate. The final concentration of compounds ranged from 300 μM to 1.171 μM (9-point, 2-fold dilution dose response curve), and the final DMSO concentration was 1%.
# as §2, with “plates were” for “plates are”, “cells were” for “cells are”, “washing was” for “washing is”, “Images were” for “Images are”, “compounds were” for “compounds are”, “control. […]” for “control.”
# [3] = test system: LN229 gliobastoma cells MGMT−/MMR−; test: as above; conditions: Homo sapiens, read-out: MGMT− MMR− Activity
# From the text: as §1, §2, §3
# as §2, with “plates were” for “plates are”, “cells were” for “cells are”, “washing was” for “washing is”, “Images were” for “Images are”, “compounds were” for “compounds are”, “control. […]” for “control.”
# [4] = test system: LN229 gliobastoma cells MGMT+/MMR−; test: Anti-cancer assay, isogenic LN229 cells, nuclei count (Example 43); conditions: Homo sapiens, read-out: MGMT+ MMR− Activity
# From the text: as §1, §2, §3
# as §2, with “plates were” for “plates are”, “cells were” for “cells are”, “washing was” for “washing is”, “Images were” for “Images are”, “compounds were” for “compounds are”
# [5] = test system: LN229 gliobastoma cells MGMT+/MMR+; test: as above; conditions: Homo sapiens, read-out: MGMT+ MMR+ Activity
# From the text: as §1, §2, §3
# as §2, with “plates were” for “plates are”, “cells were” for “cells are”, “washing was” for “washing is”, “Images were” for “Images are”, “compounds were” for “compounds are”
# [6] = LN-229, LN229 MGMT−/MMR+, 120 hours
# [7] = LN-229, LN229 MGMT−/MMR−, 120 hours
# [8] = LN-229, LN229 MGMT+/MMR−, 120 hours
# [9] = LN-229, LN229 MGMT+/MMR+, 120 hours
Structure (SMILES),"IC50 [2, 6]","IC50 [3, 7]","IC50 [4, 8]","IC50 [5, 9]",anti-cancer activity against LN229 isogenic cell line set [1],"IC50 ([2]; LN-229, 120 h)","IC50 ([3]; LN-229, 120 h)","IC50 ([4]; LN-229, 120 h)","IC50 ([5]; LN-229, 120 h)"
COCCn1nnc2c(C(N)=O)ncn2c1=O [Compound A2],,,,,no detectable anti-cancer activity,,,,
"CN(C)CCN(C)C(=O)c1ncn2c(=O)n(CCOC(F)(F)F)nnc12 [Compound I-11, N-(2-(Dimethylamino)ethyl)-N-methyl-4-oxo-3-(2-(trifluoromethoxy)ethyl)-3,4-dihydroimidazo[5,1-d][1,2,3,5]tetrazine-8-carboxamide]",,,,,,< 20 µM,< 20 µM,50 to 100 µM,50 to 100 µM

# More lines, main results first:
"IC50 [2, 6]","IC50 [3, 7]","IC50 [4, 8]","IC50 [5, 9]",Structure (SMILES),anti-cancer activity against LN229 isogenic cell line set [1],"IC50 ([2]; LN-229, 120 h)","IC50 ([3]; LN-229, 120 h)","IC50 ([4]; LN-229, 120 h)","IC50 ([5]; LN-229, 120 h)"
20 to 50 µM,20 to 50 µM,50 to 100 µM,20 to 50 µM,"O=C(c1ncn2c(=O)n(CCOC(F)(F)F)nnc12)N1CCCC1 [Compound I-7, 8-(Pyrrolidine-1-carbonyl)-3-(2-(trifluoromethoxy)ethyl)imidazo[5,1-d][1,2,3,5]tetrazin-4(3H)-one]",,,,,
20 to 50 µM,20 to 50 µM,20 to 50 µM,50 to 100 µM,"CN(C)C(=O)c1ncn2c(=O)n(CCOC(F)(F)F)nnc12 [Compound I-4, N,N-Dimethyl-4-oxo-3-(2-(trifluoromethoxy)ethyl)-3,4-dihydroimidazo[5,1-d][1,2,3,5]tetrazine-8-carboxamide]",,,,,
< 20 µM,20 to 50 µM,< 20 µM,< 20 µM,"O=c1n(CCOC(F)(F)F)nnc2c(-c3ccccc3)ncn12 [II-5, 8-Phenyl-3-(2-(trifluoromethoxy)ethyl)imidazo[5,1-d][1,2,3,5]tetrazin-4(3H)-one]",,,,,
< 20 µM,< 20 µM,20 to 50 µM,< 20 µM,"O=c1n(CCOC(F)(F)F)nnc2c(Cl)ncn12 [Compound I-39, 8-Chloro-3-(2-(trifluoromethoxy)ethyl)imidazo[5,1-d][1,2,3,5]tetrazin-4(3H)-one]",,,,,

# — patent publication US20250066371A1, “FLUOROALKOXYALKYLENE-DIHYDROIMIDAZO[5,1-D]TETRAZINONE COMPOUNDS AND RELATED COMPOUNDS AND THEIR USE IN TREATING MEDICAL CONDITIONS” (priority 2023, published 2025)
